Data published in patent US9034793B2, “Use of ribose to enhance plant growth” (Bioenergy, Inc., priority 2002, dated 2015).
Values joined by “and” are separate entries in the source; they are usually repeats but may differ in a detail not shown here. Equal values may be shown once.

Columns and labels:
bean seeds [1] = assay: Plant growth and yield from bean seeds, daylight or darkness (Example 2); format: in vivo
Protocol: Three different treatments were explored on bean seeds to determine the effects of ribose (at two different doses) on plant growth and proliferation. [The three treatments include control (plain water), a 0.1332 M solution of ribose (5 g D-ribose dissolved in 250 ml water), and a 0.0666 M solution of ribose (5 g D-ribose dissolved in 500 ml water)]. The plants were kept under two different conditions, normal daylight and darkness. A total of six plants will be tested, with the conditions that each plant were tested at listed below. Treatments: [table] Each seed was planted under identical conditions (soil and pot size) and all at the same time. The environmental conditions (such as temperature and humidity), except for lighting, were kept constant for all the plants. Once potted, each seed received one to two tablespoons of treatment liquid (as mentioned above). A daily record was kept of the activity of each plant. Watering was done on every other day (or sooner if the soil was deemed too dry by the researcher), each again receiving one tablespoon of treatment liquid. Assessment of the effects of ribose fertilization was determined by measuring the time to the first appearance of a plant from the soil, the rate of growth, and leaf size. Table 3 represents the accumulated plant growth data from Example 2 and FIGS. 3 and 4 are graphic presentations of plant growth during light and dark conditions.

bean seeds [2] = assay: Root growth assessment (Example 3); format: in vivo; conditions: for Root appearance: 2 weeks, compared with water treated roots
From the text: Identical sized pots, containing the same consistency of soil media, were used in assessing root growth. Bean seeds of similar size were chosen. One seed was planted in each pot. The depth in the soil for each seed that was planted was the same. Paired pots (total of 3 pairs, 6 pots), each containing one bean seed, were used. One pair of pots received 2 teaspoons of water every other day (Group A). The second pair of pots received a low Ribose solution (1 teaspoon of D-ribose in 16 oz of water), each pot received 2 teaspoons of this low dose of Ribose every other day (Group B). The final pair of pots received a higher dose of Ribose (1 teaspoon of D-ribose in 4 oz of water), each pot received 2 teaspoons of this higher dose of Ribose every other day (Group C). In each pair of pots, roots were examined at week 1 and 2, by removing the roots of one pot only in each group at the designed test time point with soil emersion in a bucket of water. At week 2 all remaining pots had shoots emerging from the top soil. The roots were weighed and measured for length. […] This discrepancy expanded when the roots were analyzed at 2 weeks. […] The weight of the roots treated with high dose Ribose were appreciably less in weight than both the water and low dose Ribose treated groups.

beans (B) = assay: Transplants in garden, growth and hardening after transplantation: beans; format: in vivo, bean
From the text: (§1) Hosta (H. plantaginea grandiflora) plants were transplanted. The protocol was designed such that half of the plants were supplied with water alone and half of the plants received a ribose based solution, in which powdered D-ribose was mixed in water. All plants were transplanted at the same level in the soil and in like soil. All plants were watered at the same times of day, mid-morning and at dusk. Each plant received the same amount of water/watering (½ liter water at each watering). Results of plant growth data following transplantation are graphically depicted in FIGS. 1 and 2. [table]

[3] = tested on: plants grown from seed (5 seeds per plot); assay: Plant feeding with ribose for growth (Table 1); format: in vivo, Hosta (H. plantaginea grandiflora); conditions: for Unsprouted: of 5 seeds per plot
From the text: as §1

kohlrabi (K) = assay: Transplants in garden, growth and hardening after transplantation: kohlrabi; format: in vivo; conditions: 1-Nov, after transplant
From the text: as §1

[4] = Week 1 following seed implantation
[5] = Week 2, plants cut off above the soil, just the roots weighed

O=C[C@H](O)[C@H](O)[C@H](O)CO [5/500, D-ribose]
Amount of Growth Between Measurements (bean seeds [1]; Dark, Day 0 (17-Sep)): 0 | Plant growth-height (bean seeds [1]; Dark, Day 0 (17-Sep)): 0 | Rate of Growth Between Measurements (bean seeds [1]; Dark, Day 0 (17-Sep)): 0 | Amount of Growth Between Measurements (bean seeds [1]; Dark, Day 3 (20-Sep)): 0 | Plant growth-height (bean seeds [1]; Dark, Day 3 (20-Sep)): 0 | Rate of Growth Between Measurements (bean seeds [1]; Dark, Day 3 (20-Sep)): 0 | Amount of Growth Between Measurements (bean seeds [1]; Dark, Day 5 (22-Sep)): 0 | Plant growth-height (bean seeds [1]; Dark, Day 5 (22-Sep)): 0 | Rate of Growth Between Measurements (bean seeds [1]; Dark, Day 5 (22-Sep)): 0 | Rate of Growth Overall Thru Date (bean seeds [1]; Dark, Day 5 (22-Sep)): 0 | Amount of Growth Between Measurements (bean seeds [1]; Dark, Day 7 (24-Sep)): 5.2 | Plant growth-height (bean seeds [1]; Dark, Day 7 (24-Sep)): 5.2 | Rate of Growth Between Measurements (bean seeds [1]; Dark, Day 7 (24-Sep)): 2.60 | Rate of Growth Overall Thru Date (bean seeds [1]; Dark, Day 7 (24-Sep)): 0.74 | Amount of Growth Between Measurements (bean seeds [1]; Dark, Day 8 (25-Sep)): 5.9 | Plant growth-height (bean seeds [1]; Dark, Day 8 (25-Sep)): 11.1 | Rate of Growth Between Measurements (bean seeds [1]; Dark, Day 8 (25-Sep)): 5.90 | Rate of Growth Overall Thru Date (bean seeds [1]; Dark, Day 8 (25-Sep)): 1.39 | Amount of Growth Between Measurements (bean seeds [1]; Dark, Day 9 (26-Sep)): 9.7 | Plant growth-height (bean seeds [1]; Dark, Day 9 (26-Sep)): 20.8 | Rate of Growth Between Measurements (bean seeds [1]; Dark, Day 9 (26-Sep)): 9.70 | Rate of Growth Overall Thru Date (bean seeds [1]; Dark, Day 9 (26-Sep)): 2.31 | Amount of Growth Between Measurements (bean seeds [1]; Dark, Day 10 (27-Sep)): 9.8 | Plant growth-height (bean seeds [1]; Dark, Day 10 (27-Sep)): 30.6 | Rate of Growth Between Measurements (bean seeds [1]; Dark, Day 10 (27-Sep)): 9.80 | Rate of Growth Overall Thru Date (bean seeds [1]; Dark, Day 10 (27-Sep)): 3.06 | Amount of Growth Between Measurements (bean seeds [1]; Dark, Day 11 (28-Sep)): 5.2 | Plant growth-height (bean seeds [1]; Dark, Day 11 (28-Sep)): 35.8 | Rate of Growth Between Measurements (bean seeds [1]; Dark, Day 11 (28-Sep)): 5.20 | Rate of Growth Overall Thru Date (bean seeds [1]; Dark, Day 11 (28-Sep)): 3.25 | Amount of Growth Between Measurements (bean seeds [1]; Dark, Day 12 (29-Sep)): 3.5 | Plant growth-height (bean seeds [1]; Dark, Day 12 (29-Sep)): 39.3 | Rate of Growth Between Measurements (bean seeds [1]; Dark, Day 12 (29-Sep)): 3.50 | Rate of Growth Overall Thru Date (bean seeds [1]; Dark, Day 12 (29-Sep)): 3.28 | Amount of Growth Between Measurements (bean seeds [1]; Dark, Day 13 (30-Sep)): 5.5 | Plant growth-height (bean seeds [1]; Dark, Day 13 (30-Sep)): 44.8 | Rate of Growth Between Measurements (bean seeds [1]; Dark, Day 13 (30-Sep)): 5.50 | Rate of Growth Overall Thru Date (bean seeds [1]; Dark, Day 13 (30-Sep)): 3.45 | Amount of Growth Between Measurements (bean seeds [1]; Dark, Day 16 (3-Oct)): 2 | Plant growth-height (bean seeds [1]; Dark, Day 16 (3-Oct)): 46.8 | Rate of Growth Between Measurements (bean seeds [1]; Dark, Day 16 (3-Oct)): 0.67 | Rate of Growth Overall Thru Date (bean seeds [1]; Dark, Day 16 (3-Oct)): 2.93 | Amount of Growth Between Measurements (bean seeds [1]; Dark, Day 19 (6-Oct)): 0 | Plant growth-height (bean seeds [1]; Dark, Day 19 (6-Oct)): 46.8 | Rate of Growth Between Measurements (bean seeds [1]; Dark, Day 19 (6-Oct)): 0.00 | Rate of Growth Overall Thru Date (bean seeds [1]; Dark, Day 19 (6-Oct)): 2.46 | Amount of Growth Between Measurements (bean seeds [1]; Light, Day 0 (17-Sep)): 0 | Plant growth-height (bean seeds [1]; Light, Day 0 (17-Sep)): 0 | Rate of Growth Between Measurements (bean seeds [1]; Light, Day 0 (17-Sep)): 0 | Amount of Growth Between Measurements (bean seeds [1]; Light, Day 3 (20-Sep)): 0 | Plant growth-height (bean seeds [1]; Light, Day 3 (20-Sep)): 0 | Rate of Growth Between Measurements (bean seeds [1]; Light, Day 3 (20-Sep)): 0 | Amount of Growth Between Measurements (bean seeds [1]; Light, Day 5 (22-Sep)): 0 | Plant growth-height (bean seeds [1]; Light, Day 5 (22-Sep)): 0 | Rate of Growth Between Measurements (bean seeds [1]; Light, Day 5 (22-Sep)): 0 | Rate of Growth Overall Thru Date (bean seeds [1]; Light, Day 5 (22-Sep)): 0 | Amount of Growth Between Measurements (bean seeds [1]; Light, Day 7 (24-Sep)): 0 | Plant growth-height (bean seeds [1]; Light, Day 7 (24-Sep)): 0 | Rate of Growth Between Measurements (bean seeds [1]; Light, Day 7 (24-Sep)): 0 | Rate of Growth Overall Thru Date (bean seeds [1]; Light, Day 7 (24-Sep)): 0.00 | Amount of Growth Between Measurements (bean seeds [1]; Light, Day 8 (25-Sep)): 0.5 | Plant growth-height (bean seeds [1]; Light, Day 8 (25-Sep)): 0.5 | Rate of Growth Between Measurements (bean seeds [1]; Light, Day 8 (25-Sep)): 0.50 | Rate of Growth Overall Thru Date (bean seeds [1]; Light, Day 8 (25-Sep)): 0.06 | Amount of Growth Between Measurements (bean seeds [1]; Light, Day 9 (26-Sep)): 1.6 | Plant growth-height (bean seeds [1]; Light, Day 9 (26-Sep)): 2.1 | Rate of Growth Between Measurements (bean seeds [1]; Light, Day 9 (26-Sep)): 1.60 | Rate of Growth Overall Thru Date (bean seeds [1]; Light, Day 9 (26-Sep)): 0.23 | Amount of Growth Between Measurements (bean seeds [1]; Light, Day 10 (27-Sep)): 8.4 | Plant growth-height (bean seeds [1]; Light, Day 10 (27-Sep)): 10.5 | Rate of Growth Between Measurements (bean seeds [1]; Light, Day 10 (27-Sep)): 8.40 | Rate of Growth Overall Thru Date (bean seeds [1]; Light, Day 10 (27-Sep)): 1.05 | Amount of Growth Between Measurements (bean seeds [1]; Light, Day 11 (28-Sep)): 6.1 | Plant growth-height (bean seeds [1]; Light, Day 11 (28-Sep)): 16.6 | Rate of Growth Between Measurements (bean seeds [1]; Light, Day 11 (28-Sep)): 6.10 | Rate of Growth Overall Thru Date (bean seeds [1]; Light, Day 11 (28-Sep)): 1.51 | Amount of Growth Between Measurements (bean seeds [1]; Light, Day 12 (29-Sep)): 5.9 | Plant growth-height (bean seeds [1]; Light, Day 12 (29-Sep)): 22.5 | Rate of Growth Between Measurements (bean seeds [1]; Light, Day 12 (29-Sep)): 5.90 | Rate of Growth Overall Thru Date (bean seeds [1]; Light, Day 12 (29-Sep)): 1.88 | Amount of Growth Between Measurements (bean seeds [1]; Light, Day 13 (30-Sep)): 3.8 | Plant growth-height (bean seeds [1]; Light, Day 13 (30-Sep)): 26.3 | Rate of Growth Between Measurements (bean seeds [1]; Light, Day 13 (30-Sep)): 3.80 | Rate of Growth Overall Thru Date (bean seeds [1]; Light, Day 13 (30-Sep)): 2.02 | Amount of Growth Between Measurements (bean seeds [1]; Light, Day 16 (3-Oct)): 2.1 | Plant growth-height (bean seeds [1]; Light, Day 16 (3-Oct)): 28.4 | Rate of Growth Between Measurements (bean seeds [1]; Light, Day 16 (3-Oct)): 0.70 | Rate of Growth Overall Thru Date (bean seeds [1]; Light, Day 16 (3-Oct)): 1.78 | Amount of Growth Between Measurements (bean seeds [1]; Light, Day 19 (6-Oct)): 0.6 | Plant growth-height (bean seeds [1]; Light, Day 19 (6-Oct)): 29 | Rate of Growth Between Measurements (bean seeds [1]; Light, Day 19 (6-Oct)): 0.20 | Rate of Growth Overall Thru Date (bean seeds [1]; Light, Day 19 (6-Oct)): 1.53

O=C[C@H](O)[C@H](O)[C@H](O)CO [High Ribose, D-ribose]
Root appearance (bean seeds [2]; listed as high dose Ribose): thick | Root Length (bean seeds [2]; [4]): 13.8 cm | Root Weight (bean seeds [2]; [4]): 1.46 gm | Root Length (bean seeds [2]; Week 2): 14.7 cm | Root Weight (bean seeds [2]; [5]): 0.26 gm | Root Weight (bean seeds [2]; Week 2, plants cut off above the soil, just the roots weighed, listed as high dose Ribose): less in weight than both the low dose Ribose and water groups

O=C[C@H](O)[C@H](O)[C@H](O)CO [Low Ribose, D-ribose]
Root appearance (bean seeds [2]; listed as low dose Ribose): thicker, shorter roots | Root Length (bean seeds [2]; [4]): 13.4 cm | Root Weight (bean seeds [2]; [4]): 1.55 gm | Root Length (bean seeds [2]; Week 2): 16.0 cm | Root Weight (bean seeds [2]; [5]): 1.01 gm

O=C[C@H](O)[C@H](O)[C@H](O)CO [R1, ribose]
Bean measure to the Y (beans (B); 1-Nov, after transplant): 17 cm and 12 cm | Bean overall height (beans (B); 1-Nov, after transplant): 33.5 cm and 18 cm | Bean measure to the Y (beans (B); 9-Sep, before moving): 9 cm and 10 cm and 6 cm | Bean measure to the Y (beans (B); 19-Oct, after transplant): 16 cm and 10 cm | Bean measure to the Y (beans (B); 29-Sep, first measure after transplant): 14 cm and 9.5 cm | Plant measures, Mean ([3]; 23 June, 5 seeds per plot): 1.65 inches | Unsprouted ([3]; 23 June): 2 | #Plants/blossom ([3]; Measured 8 July): 1 | Plant measures, Mean ([3]; Measured 8 July): 2.9 inches | Kohlrabi plant measure (kohlrabi (K)): 11 and 15.5 and 9.8 and 18

O=C[C@H](O)[C@H](O)[C@H](O)CO [R2, ribose]
Plant measures, Mean ([3]; 23 June, 5 seeds per plot): 3.3 inches | Unsprouted ([3]; 23 June): 1 | #Plants/blossom ([3]; Measured 8 July): 3 | Plant measures, Mean ([3]; Measured 8 July): 5.8 inches

O=C[C@H](O)[C@H](O)[C@H](O)CO [R3, ribose]
Plant measures, Mean ([3]; 23 June, 5 seeds per plot): 6.05 inches | Unsprouted ([3]; 23 June): 0 | #Plants/blossom ([3]; Measured 8 July): 4 | Plant measures, Mean ([3]; Measured 8 July): 9.3 inches
